Laboratory results published in patent US9849110B2, “Intermittent fibrate administration method” (Biocopea Limited, priority 2012, dated 2017).

Legend:
[1] = Example 2: blood test of LDL, HDL and cholesterol levels, periodic treatment with atorvastatin, person; type: in vivo, human; conditions: 40 mg orally, one week on / a month off, after six months
[2] = Example 5: blood test of LDL, HDL and cholesterol levels, periodic treatment with gemfibrozil, person; type: in vivo, human
Procedure: A person visits their physician and during the visit undergoes a blood test. The person is found to have an LDL level of 74 mg/dl, HDL level of 32 mg/dl and a cholesterol level of 311 mg/dl. The physician prescribes gemfibrozil at an initial dose of 600 mg taken orally for one week followed by a one month break, followed by a week of taking gemfibrozil followed by a month break, which schedule is repeated thereafter. To remind the person to take gemfibrozil after the monthly break, the physician inputs the days that the person is to take gemfibrozil and arranges for the person to receive text messages through their cell phone and a telephone call to remind them to take gemfibrozil. One month after taking the first weeks dose of gemfibrozil, the person receives a reminder by text to take the second weeks dose of gemfibrozil. This repeats on a monthly basis. The person returns to the physician for a follow on blood test six months later and they are found to have LDL level of 101 mg/dl, HDL level of 41 mg/dl and a cholesterol level of 211 mg/dl. The physician recommends that the person continue to take gemfibrozil for a week followed by a month break, which the person does on a repeated basis. A year later the person returns to the physician for a blood test.

[3] = Example 4: blood test of LDL, HDL and cholesterol levels, periodic treatment with lovastatin, person; type: in vivo, human
Procedure: A person visits their physician and during the visit undergoes a blood test. The person is found to have an LDL level of 91 mg/dl, HDL level of 40 mg/dl and a cholesterol level of 222 mg/dl. […] To remind the person to take lovastatin after each four month break, the physician inputs the days that the person is to take lovastatin and arranges for the person to receive a letter by postal mail to remind them to take the lovastatin. Four months after taking the first weeks dose of lovastatin, the person receives a reminder by postal mail to take the second weeks dose. This repeats on an every four month basis. The person returns to the physician for a follow on blood test one year later and they are found to have LDL level of 109 mg/dl, HDL level of 45 mg/dl and a cholesterol level of 184 mg/dl. The person continues taking the atorvastatin for a week followed by a break of four months, which they repeat for the rest of their life, with their LDL levels ranging from 115-120, HDL levels ranging from 45-51 and their cholesterol levels ranging from 151-162.

[4] = Example 3: blood test of LDL, HDL and cholesterol levels, periodic treatment with fluvastatin, person; type: in vivo, human
Procedure: A person visits their physician and during the visit undergoes a blood test. The person is found to have an LDL level of 87 mg/dl, HDL level of 41 mg/dl and a cholesterol level of 266 mg/dl. […] To remind the person to take fluvastatin following the two month breaks, the physician inputs the days that the person is to take fluvastatin and arranges for the person to receive text messages through Skype that the person will receive on their cell phone and their personal computer. Two months after taking the first weeks dose of atorvastatin, the person receives a reminder by text to take the second weeks dose of atorvastatin two months later. This repeats every two months. The person returns to the physician for a follow on blood test six months later and they are found to have LDL level of 112 mg/dl, HDL level of 47 mg/dl and a cholesterol level of 188 mg/dl. At this point the physician changes the frequency of dosing to one week taking fluvastatin followed by a break of three months at a dose of 40 mg, with this schedule repeating thereafter. The physician inputs the new schedule so that the person receives text messages every three months to restart taking fluvastatin. A year later, the person returns to the physician for a blood test. […] The physician recommends that the person continue to take fluvastatin for a week followed by a three month break and repeating this schedule thereafter, which the person does. A year later the person returns to the physician for a blood test. […] The person continues taking the atorvastatin for a week followed by a three month break and repeating this schedule for the rest of their life, with their LDL levels ranging from 115-120, HDL levels ranging from 45-51 and their cholesterol levels ranging from 151-162.

[5] = Example 2: blood test of LDL, HDL and cholesterol levels, periodic treatment with atorvastatin, person; type: in vivo, human; conditions: for HDL level / LDL level / cholesterol level: one week on / two months off
Procedure: A person visits their physician and during the visit undergoes a blood test. The person is found to have an LDL level of 92 mg/dl, HDL level of 41 mg/dl and a cholesterol level of 212 mg/dl. […] To remind the person to take atorvastatin after the monthly breaks, they download an application to their smart phone and inputs the first day they are to take atorvastatin and the application automatically determines the day a month after stopping taking atorvastatin that they are to start taking the atorvastatin again. A month after taking the first weeks dose of atorvastatin, the person receives a reminder from the application on their smart phone to take the second dose of atorvastatin. This repeats on a monthly basis. The person returns to the physician for a follow on blood test six months later and they are found to have LDL level of 120 mg/dl, HDL level of 45 mg/dl and a cholesterol level of 161 mg/dl. At this point the physician changes the frequency of the breaks between week of dosing to every two months, while maintaining the dose of 20 mg. The person inputs the new schedule into the application on their smart phone and they are reminded to take atorvastatin every two month by the application. Six months later, the person returns to the physician for a blood test. […] The physician recommends that the person continue to take atorvastatin for a week followed by a two month break, which the person does. A year later the person returns to the physician for a blood test. […] The person continues taking the atorvastatin for a week every two months for the rest of their life, with their LDL levels ranging from 115-120, HDL levels ranging from 45-51 and their cholesterol levels ranging from 151-162.

[6] = meta-analysis of clinical trials; cited from earlier work
[7] = one week on / four months off, for the rest of their life, in mg/dL
[8] = once monthly administration (so in the source)
[9] = one week on / three month break, for the rest of their life, in mg/dL
[10] = a week every two months, for the rest of their life, in mg/dL
[11] = dose of 20 mg, after six months
[12] = 600 mg orally, one week on / one month off, after six months
[13] = one week on / one month off, a year later
[14] = one week on / one month off, for the rest of their life, in mg/dL
[15] = 40 mg, one week on / four months off, one year later

Structure (SMILES): CC(C)c1c(C(=O)Nc2ccccc2)c(-c2ccccc2)c(-c2ccc(F)cc2)n1CC[C@@H](O)C[C@@H](O)CC(=O)O [atorvastatin]
- HDL level [1]: 45 mg/dL
- LDL level [1]: 120 mg/dL
- cholesterol level [1]: 161 mg/dL
- maintaining normal levels of LDL, HDL and cholesterol ([2]; once monthly administration): successful at maintaining normal levels of LDL, HDL and cholesterol
- HDL levels ranging [3, 7]: 45-51
- LDL levels ranging [3, 7]: 115-120
- cholesterol levels ranging [3, 7]: 151-162
- maintaining normal levels of LDL, HDL and cholesterol [4, 8]: successful at maintaining normal levels of LDL, HDL and cholesterol
- HDL levels ranging [4, 9]: 45-51
- LDL levels ranging [4, 9]: 115-120
- cholesterol levels ranging [4, 9]: 151-162
- HDL levels ranging [5, 10]: 45-51
- LDL levels ranging [5, 10]: 115-120
- cholesterol levels ranging [5, 10]: 151-162
- HDL level [5, 11]: 48 mg/dL
- LDL level [5, 11]: 120 mg/dL
- cholesterol level [5, 11]: 160 mg/dL
- maintaining normal levels of LDL, HDL and cholesterol [5, 8]: successful at maintaining normal levels of LDL, HDL and cholesterol
- HDL level ([5]; a year later): 48 mg/dL
- LDL level ([5]; a year later): 118 mg/dL
- cholesterol level ([5]; a year later): 161 mg/dL

Structure (SMILES): COCc1c(C(C)C)nc(C(C)C)c(/C=C/[C@@H](O)C[C@@H](O)CC(=O)O)c1-c1ccc(F)cc1 [cerivastatin]
- rhabdomyolysis [6]: rhabdomyolysis did not occur

Structure (SMILES): Cc1ccc(C)c(OCCCC(C)(C)C(=O)O)c1 [gemfibrozil]
- HDL level [2, 12]: 41 mg/dL
- LDL level [2, 12]: 101 mg/dL
- cholesterol level [2, 12]: 211 mg/dL
- HDL level [2, 13]: 44 mg/dL
- LDL level [2, 13]: 106 mg/dL
- cholesterol level [2, 13]: 191 mg/dL
- HDL levels ranging [2, 14]: 45-51
- LDL levels ranging [2, 14]: 115-120
- cholesterol levels ranging [2, 14]: 151-162

Structure (SMILES): CC[C@H](C)C(=O)O[C@H]1C[C@@H](C)C=C2C=C[C@H](C)[C@H](CC[C@@H]3C[C@@H](O)CC(=O)O3)[C@H]21 [lovastatin]
- HDL level [3, 15]: 45 mg/dL
- LDL level [3, 15]: 109 mg/dL
- cholesterol level [3, 15]: 184 mg/dL
- maintaining normal levels of LDL, HDL and cholesterol ([3]; once every four month administration): successful at maintaining normal levels of LDL, HDL and cholesterol
